# How the values were obtained:
# Format in all cases: in vivo
# [1] = test system: redroot pigweed (Amaranthus retroflexus, AMARE); assay: Pre-emerge test, greenhouse herbicide activity screening; details: rated 14 days after application, 0 = no damage, 100 = complete death
# Procedure, shortened: (§1)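 Visual ratings on a 0-100 scale (0 no damage, 100 all plants dead) were taken at 14 days after treatment. Rates of 15-1000 g ai/ha in acetone, 187 l/ha, were sprayed onto soil one day after planting (pre-emerge) or onto 2-3 leaf plants with 0.25% v/v surfactant (post-emerge).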
# [2] = test system: barnyardgrass (Echinochloa crus-galli, ECHCG); assay: as above; details: rated 14 days after application, 0 = no damage, 100 = complete death
# Procedure, shortened: as §1
# [3] = test system: common ragweed (Ambrosia artemisizfolia L., AMBEL); assay: as above; details: rated 14 days after application, 0 = no damage, 100 = complete death
# Procedure, shortened: as §1
# [4] = test system: green foxtail (Setaria viridis, SETVI); assay: as above; details: rated 14 days after application, 0 = no damage, 100 = complete death
# Procedure, shortened: as §1
# [5] = test system: ivyleaf morningglory (Ipomoea hederacea, IPOHE); assay: as above; details: rated 14 days after application, 0 = no damage, 100 = complete death
# Procedure, shortened: as §1
# [6] = test system: johnsongrass (Sorghum halepense, SORHA); assay: as above; details: rated 14 days after application, 0 = no damage, 100 = complete death
# Procedure, shortened: as §1
# [7] = test system: lambsquarters (Chenopodium album, CHEAL); assay: as above; details: rated 14 days after application, 0 = no damage, 100 = complete death
# Procedure, shortened: as §1
# [8] = test system: large crabgrass (Digitaria sanguinalis, DIGSA); assay: as above; details: rated 14 days after application, 0 = no damage, 100 = complete death
# Procedure, shortened: as §1
# [9] = test system: sicklepod (Cassia obtusifolia, CASOB); assay: as above; details: rated 14 days after application, 0 = no damage, 100 = complete death
# Procedure, shortened: as §1
# [10] = test system: velvetleaf (Abutilon theophrasti, ABUTH); assay: as above; details: rated 14 days after application, 0 = no damage, 100 = complete death
# Procedure, shortened: as §1
# [11] = test system: field corn (Zea mays L., var. Dekalb 535, CORN); assay: Pre-emerge test, crop safety; details: rated 14 days after application, 0 = no damage, 100 = complete death
# Procedure, shortened: (§2)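 Herbicidal damage is scored 0 (none) to 100 (complete plant death) two weeks after a simulated field spray. Rates span 15–1000 g ai/ha, delivered in acetone at 187 l/ha. For post-emergence treatments, plants have 2–3 leaves and the spray carries 0.25% v/v non-ionic surfactant.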
# [12] = test system: upland rice (Oryza sp., var. Tebonnet, RICE); assay: Pre-emerge test, crop safety; details: rated 14 days after application, 0 = no damage, 100 = complete death
# Procedure, shortened: as §2
# [13] = test system: barnyardgrass (Echinochloa crus-galli, ECHCG); assay: Post-emerge test, greenhouse herbicide activity screening; details: post-emerge, 14 days after application, rating scale 0-100
# Procedure, shortened: (§3)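 Compounds in acetone were track-sprayed at 15–1000 g ai/ha: pre-emergence onto soil sown the previous day, then top-watered to incorporate and later bottom-watered; post-emergence onto 2–3 leaf plants with 0.25% v/v surfactant, bottom-watered only. Ratings on a 0–100 phytotoxicity scale were taken at day 14.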
# [14] = test system: common ragweed (Ambrosia artemisizfolia L., AMBEL); assay: as above; details: post-emerge, 14 days after application, rating scale 0-100
# Procedure, shortened: as §3
# [15] = test system: green foxtail (Setaria viridis, SETVI); assay: as above; details: post-emerge, 14 days after application, rating scale 0-100
# Procedure, shortened: as §3
# [16] = test system: ivyleaf morningglory (Ipomoea hederacea, IPOHE); assay: as above; details: post-emerge, 14 days after application, rating scale 0-100
# Procedure, shortened: as §3
# [17] = test system: johnsongrass (Sorghum halepense, SORHA); assay: as above; details: post-emerge, 14 days after application, rating scale 0-100
# Procedure, shortened: as §3
# [18] = test system: lambsquarters (Chenopodium album, CHEAL); assay: as above; details: post-emerge, 14 days after application, rating scale 0-100
# Procedure, shortened: as §3
# [19] = test system: large crabgrass (Digitaria sanguinalis, DIGSA); assay: as above; details: post-emerge, 14 days after application, rating scale 0-100
# Procedure, shortened: as §3
# [20] = test system: redroot pigweed (Amaranthus retroflexus, AMARE); assay: as above; details: post-emerge, 14 days after application, rating scale 0-100
# Procedure, shortened: as §3
# [21] = test system: sicklepod (Cassia obtusifolia, CASOB); assay: as above; details: post-emerge, 14 days after application, rating scale 0-100
# Procedure, shortened: as §3
# [22] = test system: velvetleaf (Abutilon theophrasti, ABUTH); assay: as above; details: post-emerge, 14 days after application, rating scale 0-100
# Procedure, shortened: as §3
# [23] = test system: field corn (Zea mays L., var. Dekalb 535, CORN); assay: Post-emerge test, crop safety; details: post-emerge, 14 days after application, rating scale 0-100
# Procedure, shortened: as §1
# [24] = test system: upland rice (Oryza sp., var. Tebonnet, RICE); assay: Post-emerge test, crop safety; details: post-emerge, 14 days after application, rating scale 0-100
# Procedure, shortened: as §1
smiles,measurement,setting,value
COc1c(Cl)cc(F)c(-n2c(=O)cc(C(F)(F)F)n(C)c2=O)c1NC(=O)c1ccccc1Cl [2-53],"Pre-emerge Herbicidal Activity, phytotoxicity rating (0-100), AMARE",[1]; 63 g ai/ha,100
same,"Pre-emerge Herbicidal Activity, phytotoxicity rating (0-100), AMARE",[1]; 250 g ai/ha,100
same,"Pre-emerge Herbicidal Activity, phytotoxicity rating (0-100), ECHCG",[2]; 63 g ai/ha,40
same,"Pre-emerge Herbicidal Activity, phytotoxicity rating (0-100), ECHCG",[2]; 250 g ai/ha,99
same,"Pre-emerge Herbicidal Activity, phytotoxicity rating (0-100), AMBEL",[3]; 63 g ai/ha,80
same,"Pre-emerge Herbicidal Activity, phytotoxicity rating (0-100), AMBEL",[3]; 250 g ai/ha,100
same,"Pre-emerge Herbicidal Activity, phytotoxicity rating (0-100), SETVI",[4]; 63 g ai/ha,100
same,"Pre-emerge Herbicidal Activity, phytotoxicity rating (0-100), SETVI",[4]; 250 g ai/ha,100
same,"Pre-emerge Herbicidal Activity, phytotoxicity rating (0-100), IPOHE",[5]; 63 g ai/ha,100
same,"Pre-emerge Herbicidal Activity, phytotoxicity rating (0-100), IPOHE",[5]; 250 g ai/ha,100
same,"Pre-emerge Herbicidal Activity, phytotoxicity rating (0-100), SORHA",[6]; 63 g ai/ha,40
same,"Pre-emerge Herbicidal Activity, phytotoxicity rating (0-100), SORHA",[6]; 250 g ai/ha,100
same,"Pre-emerge Herbicidal Activity, phytotoxicity rating (0-100), CHEAL",[7]; 63 g ai/ha,100
same,"Pre-emerge Herbicidal Activity, phytotoxicity rating (0-100), CHEAL",[7]; 250 g ai/ha,100
same,"Pre-emerge Herbicidal Activity, phytotoxicity rating (0-100), DIGSA",[8]; 63 g ai/ha,90
same,"Pre-emerge Herbicidal Activity, phytotoxicity rating (0-100), DIGSA",[8]; 250 g ai/ha,100
same,"Pre-emerge Herbicidal Activity, phytotoxicity rating (0-100), CASOB",[9]; 63 g ai/ha,95
same,"Pre-emerge Herbicidal Activity, phytotoxicity rating (0-100), CASOB",[9]; 250 g ai/ha,100
same,"Pre-emerge Herbicidal Activity, phytotoxicity rating (0-100), ABUTH",[10]; 63 g ai/ha,100
same,"Pre-emerge Herbicidal Activity, phytotoxicity rating (0-100), ABUTH",[10]; 250 g ai/ha,100
same,"Pre-emerge phytotoxicity rating (0-100), crop damage, CORN",[11]; 63 g ai/ha,25
same,"Pre-emerge phytotoxicity rating (0-100), crop damage, CORN",[11]; 250 g ai/ha,90
same,"Pre-emerge phytotoxicity rating (0-100), crop damage, RICE",[12]; 63 g ai/ha,80
same,"Pre-emerge phytotoxicity rating (0-100), crop damage, RICE",[12]; 250 g ai/ha,90
same,phytotoxicity rating ECHCG,[13]; 63 g ai/ha,0
same,phytotoxicity rating ECHCG,[13]; 250 g ai/ha,70
same,phytotoxicity rating AMBEL,[14]; 63 g ai/ha,70
same,phytotoxicity rating AMBEL,[14]; 250 g ai/ha,90
same,phytotoxicity rating SETVI,[15]; 63 g ai/ha,20
same,phytotoxicity rating SETVI,[15]; 250 g ai/ha,40
same,phytotoxicity rating IPOHE,[16]; 63 g ai/ha,90
same,phytotoxicity rating IPOHE,[16]; 250 g ai/ha,100
same,phytotoxicity rating SORHA,[17]; 63 g ai/ha,0
same,phytotoxicity rating SORHA,[17]; 250 g ai/ha,50
same,phytotoxicity rating CHEAL,[18]; 63 g ai/ha,95
same,phytotoxicity rating CHEAL,[18]; 250 g ai/ha,100
same,phytotoxicity rating DIGSA,[19]; 63 g ai/ha,0
same,phytotoxicity rating DIGSA,[19]; 250 g ai/ha,20
same,phytotoxicity rating AMARE,[20]; 63 g ai/ha,90
same,phytotoxicity rating AMARE,[20]; 250 g ai/ha,100
same,phytotoxicity rating CASOB,[21]; 63 g ai/ha,70
same,phytotoxicity rating CASOB,[21]; 250 g ai/ha,100
same,phytotoxicity rating ABUTH,[22]; 63 g ai/ha,100
same,phytotoxicity rating ABUTH,[22]; 250 g ai/ha,100
same,phytotoxicity rating CORN,[23]; 63 g ai/ha,10
same,phytotoxicity rating CORN,[23]; 250 g ai/ha,70
same,phytotoxicity rating RICE,[24]; 63 g ai/ha,30
same,phytotoxicity rating RICE,[24]; 250 g ai/ha,70

# — patent US6355799B1, “Substituted benzene compounds, process for their preparation, and herbicidal and defoliant compositions containing them” (ISK Americas Incorporated, priority 1997, dated 2002)
